Key:
[1] = HPLC analysis of 25HC3S and 25HC levels in liver tissues; type: in vivo, C57BL/6J female mice; conditions: HFD mice, acute treatment
[2] = Long-term treatment of HFD-fed mice: body mass, liver weight, plasma lipids, liver function; type: in vivo, C57BL/6J female mice
Procedure: (§1) Animal studies were approved by Institutional Animal Care and Use Committee of McGuire Veterans Affairs Medical Center and were conducted in accordance with the Declaration of Helsinki, the Guide for the Care and Use of Laboratory Animals, and all applicable regulations. To examine the effect of 25HC3S on diet-induced lipid accumulation in sera and liver, 8-week-old female C57BL/6J mice (Charles River, Wilmington, Mass.) were randomly assigned to three groups: the first control group was fed a chow diet; the high fat diet (HFD) group was fed a HFD (Harlan Teklad, Madison, Wis.) containing 42% kcal from fat, 43% kcal from carbohydrate, 15% kcal from protein and 0.2% cholesterol; and the high cholesterol diet (HCD) group was fed a 2% cholesterol diet with 18% kcal from fat, 58% kcal from carbohydrate and 24% kcal from protein for 10 weeks, respectively. All mice were housed under identical conditions in an aseptic facility and given free access to water and food. At the end of each period, the mice were intraperitoneally injected with vehicle solution (ethanol/PBS; Vehicle), 25HC (25 mg/kg), or 25HC3S (25 mg/kg) for 2 times and fasted over night for acute treatment (n=15-17 for each group) or once every three days for 6 weeks (n=16 for each group) and fasted 5 hrs for long-term treatment; and blood samples were collected. Serum triglyceride, total cholesterol, high density lipoprotein-cholesterol, glucose, alkaline phosphatase (ALK), alanine aminotransferase (ALT), and aspartate aminotransferase (AST) were measured using standard enzymatic techniques in the clinical laboratory at McGuire Veterans Affairs Medical Center. Lipoprotein profiles in sera were analyzed by HPLC as following described.

[3] = test system: lipogenic gene expression; assay: Relative hepatic mRNA expression by real-time RT-PCR, long-term treatment; type: in vivo, C57BL/6J female mice; conditions: liver, HFD mice
Procedure: as §1
Total RNA was isolated with SV Total RNA Isolation Kit (Promega, Madison, Wis.), which included DNase treatment. Total RNA, 2 μg, was used for the first-strand cDNA synthesis as recommended by the manufacturer (Invitrogen, Carlsbad, Calif.). Real-time RT-PCR was performed using SYBR Green as indicator on ABI 7500 Fast Real-Time PCR System (Applied Biosystems, Foster City, Calif.). All primer/probe sets for real-time PCR were TaqMan gene expression assays (Applied Biosystems, Foster City, Calif.). Amplifications of β-actin and GAPDH were used as internal controls. Relative messenger RNA (mRNA) expression was quantified with the comparative cycle threshold (Ct) method and was expressed as 2^−ΔΔCt. Suitable primers were utilized.

[4] = Quantification of hepatic lipids and liver morphology, long-term treatment; type: in vivo, C57BL/6J female mice; conditions: HFD mice
Procedure: as §1
For each mouse, three specimens from different regions of the liver were collected and fixed in 4% paraformaldehyde in 0.1 M phosphate buffer at room temperature overnight. The regions of the specimens were standardized for all mice. The paraffin-embedded tissue sections (4 μm) were stained with hematoxylin and eosin.
Liver tissues were homogenized, and lipids were extracted with a mixture of chloroform and methanol (2:1), and filtered. The extracts, 0.2 ml, were evaporated to dryness and dissolved in 100 μl of isopropanol containing 10% of triton X-100 for cholesterol assay (Wako Chemicals USA, Richmond, Va.), the NEFA solution (0.5 g of EDTA-Na2, 2 g of Triton X-100, 0.76 ml of 1N NaOH, and 0.5 g of sodium azide/1, pH 6.5) for free fatty acid assay (Wako Chemicals USA, Richmond, Va.), or isopropanol only for triglyceride assay (Fisher Scientific, Pittsburgh, Pa.). All of the assays were performed according to the manufacturer's instructions, respectively. Each lipid concentration was normalized to liver weight.

[5] = test system: PCNA; assay: PCNA labeling index in liver histology; type: in vivo, C57BL/6 mice; conditions: liver specimen of 25HC3S treated mice (5 mg/kg, 48 h)
Procedure: Metabolism. (Accepted)]. […] Antigen retrieval was performed by microwaving of the sections in citrate buffer (PH 6.0) for 10 min. Sections were incubated overnight at […] with the primary monoclonal antibody against proliferating cell nuclear antigen (PCNA) (ab29, Abcam, Cambridge, Mass.). After washing with PBS, immobilized antibodies were detected by the avidin-biotin-peroxidase complex technique (Vectastain@ ABC Kit, Vector Laboratories, Burlingame, Calif.). DAB (Vector Laboratories, Burlingame, Calif.) and haematoxylin (Sigma-Aldrich, St. Louis, Mo.) was used as the chromogen and nuclear counterstain, respectively. […] The quantitation of PCNA expression was expressed as the PCNA labeling index.

[6] = Pharmacokinetics and tissue biodistribution of radioactivity after i.v. injection; type: in vivo, C57BL/6 mice
Procedure: In a separate set of experiments, mice received an i.v. injection of [^3H]-25HC3S (1×10^6 cpm/mouse) and 25HC3S (5 mg/kg). At 4, 24, 48, and 96 h after the injection, mice were sacrificed, tissues (brain, heart, lung, liver, kidney, spleen, stomach, small intestine, skeletal muscle, and colon) were rapidly dissected and weighed, and the radioactivity was measured using a liquid scintillation counter with automatic decay correction (Beckman Counter, Atlanta, Ga.). Tissue values were calculated as a percentage of injected counts per gram of tissue (% IC/g). For pharmacokinetics, blood samples (30 μl) were collected at selected times after injection from 0 to 96 h via tail clip. Counts of radioactivity were expressed as IC/ml of blood.

[7] = once every three days for 6 weeks, mean ± SD, n=5-6
[8] = i.v. [3H]-25HC3S and 25HC3S 5 mg/kg

CC(CCCC(C)(C)O)C1CCC2C3CC=C4CC(OS(=O)(=O)O)CCC4(C)C3CCC12C (centres unmarked) [25HC3S, 25-hydroxycholesterol-3-sulfate]
level of the administered compound in liver [1]: significantly increased
liver weight ([2]; 6 weeks injection, fasted 5 hrs): significantly decreased
body mass ([2]; i.p. once every three days, 6 weeks, control kept increasing): stopped increasing body mass
serum ALK, ALT and AST levels ([2]; long-term treatment): significantly reduced
plasma triglyceride level ([2]; long-term treatment (data not shown)): did not significantly decrease
plasma cholesterol level ([2]; long-term treatment, compared to vehicle (data not shown)): significantly decreased
decrease of ACC1 mRNA level ([3]; long-term treatment): 41%
decrease of CD36 mRNA ([3]; long-term treatment): 49%
decrease of FAS mRNA level ([3]; long-term treatment): 24%
decrease of GPAM mRNA ([3]; long-term treatment): 19%
decrease of SREBP-1c mRNA level ([3]; long-term treatment): 23%
suppression of IL1α expression ([3]; long-term treatment): 53%
suppression of IL1β expression ([3]; long-term treatment): 58%
suppression of TNFα expression ([3]; long-term treatment): 47%
ABCA1 relative hepatic mRNA [3, 7]: 0.80 ± 0.12
ABCG1 relative hepatic mRNA [3, 7]: 0.72 ± 0.19
ACC1 relative hepatic mRNA [3, 7]: 0.63 ± 0.08
CD36 relative hepatic mRNA [3, 7]: 0.47 ± 0.08
FAS relative hepatic mRNA [3, 7]: 0.73 ± 0.16
GPAM relative hepatic mRNA [3, 7]: 0.81 ± 0.10
IL1α relative hepatic mRNA [3, 7]: 0.54 ± 0.14
IL1β relative hepatic mRNA [3, 7]: 0.58 ± 0.27
IκBα relative hepatic mRNA [3, 7]: 1.48 ± 0.38
LDLR relative hepatic mRNA [3, 7]: 0.79 ± 0.13
LXRα relative hepatic mRNA [3, 7]: 0.95 ± 0.24
MTTP relative hepatic mRNA [3, 7]: 0.78 ± 0.09
NFκB relative hepatic mRNA [3, 7]: 0.86 ± 0.22
PLTP relative hepatic mRNA [3, 7]: 0.60 ± 0.11
SRB1 relative hepatic mRNA [3, 7]: 0.87 ± 0.20
SREBP-1c relative hepatic mRNA [3, 7]: 0.76 ± 0.08
TNFα relative hepatic mRNA [3, 7]: 0.60 ± 0.34
hepatic cholesterol ester concentration [4]: not affected
lipid inclusions in liver (H&E morphology) [4]: significantly decreased
reduction of hepatic free cholesterol ([4]; normalized by liver weight): 28%
reduction of hepatic free fatty acid ([4]; normalized by liver weight): 23%
reduction of hepatic total cholesterol ([4]; normalized by liver weight): 15%
reduction of hepatic triglyceride ([4]; normalized by liver weight): 30%
PCNA labeling index [5]: 12%
maximum level of 3H-radioactivity in blood ([6]; i.v. [3H]-25HC3S (1×10^6 cpm/mouse) and 25HC3S 5 mg/kg): 7 % IC/g
time at which blood 3H-radioactivity decreased to the half level [6, 8]: 48 h
time of maximum 3H-radioactivity in blood [6, 8]: 1 h
clearance ([6]; i.v., blood radioactivity): slow clearance
time of highest uptake of 3H-radioactivity in most organs ([6]; i.v., measured at 4, 24, 48 and 96 h): 4 h

C[C@H](CCCC(C)(C)O)[C@H]1CC[C@H]2[C@@H]3CC=C4C[C@@H](O)CC[C@]4(C)[C@H]3CC[C@]12C [25HC, 25-hydroxycholesterol]
level of the administered compound in liver [1]: significantly increased

Source: patent publication US9034859B2, “Sulfated oxysterol and oxysterol sulfation by hydroxysterol sulfotransferase promote lipid homeostasis and liver proliferation” (Virginia Commonwealth University, priority 2011, dated 2015)
